The values that follow come from ChEMBL document CHEMBL1156624, “A click chemistry approach to pleuromutilin conjugates with nucleosides or acyclic nucleoside derivatives and their binding to the bacterial ribosome” (J Med Chem, 2008).

For assay [1], the system named is Escherichia coli. Put plainly: Binding affinity to Escherichia coli MRE600 ribosome assessed as protection against N1-cyclohexyl-N3-(2-morpholino)ethylcarbodiimide p-toluenesulfonate-induced modifications at nucleotide U2506 in peptidyl transferase center of 23S rRNA at 5 uM by chemical footprinting relative to control.
Assay [2] has as its system Escherichia coli. Put plainly: Binding affinity to Escherichia coli MRE600 ribosome assessed as protection against N1-cyclohexyl-N3-(2-morpholino)ethylcarbodiimide p-toluenesulfonate-induced modifications at nucleotide U2506 in peptidyl transferase center of 23S rRNA at 50 uM by chemical footprinting relative to control.
In assay [3] the test system is Escherichia coli. Description: Binding affinity to Escherichia coli MRE600 ribosome assessed as protection against N1-cyclohexyl-N3-(2-morpholino)ethylcarbodiimide p-toluenesulfonate-induced modifications at nucleotide U2585 in peptidyl transferase center of 23S rRNA at 5 uM by chemical footprinting relative to control.
The subject of assay [4] is Escherichia coli. Put plainly: Binding affinity to Escherichia coli MRE600 ribosome assessed as protection against N1-cyclohexyl-N3-(2-morpholino)ethylcarbodiimide p-toluenesulfonate-induced modifications at nucleotide U2585 in peptidyl transferase center of 23S rRNA at 50 uM by chemical footprinting relative to control.

Take `C=C[C@]1(C)C[C@@H](OC(=O)Cn2cc(C[C@@H](O)[C@@H]3O[C@H](n4cc(C)c(=O)[nH]c4=O)C[C@H]3O)nn2)[C@]2(C)[C@H](C)CC[C@]3(CCC(=O)[C@@H]32)[C@@H](C)[C@@H]1O`: the Activity with Escherichia coli [1] was determined as 0.32; in the assay on Escherichia coli [2], 0.09; in the assay on Escherichia coli [3], 0.59; with Escherichia coli [4], 0.29.
As for `C=C[C@]1(C)C[C@@H](OC(=O)Cn2cc([C@@H](O)[C@@H]3O[C@H](n4cc(C)c(=O)[nH]c4=O)C[C@H]3O)nn2)[C@]2(C)[C@H](C)CC[C@]3(CCC(=O)[C@@H]32)[C@@H](C)[C@@H]1O` (mixture of isomers), the Activity with Escherichia coli [1] turned out to be 0.38; in the assay with Escherichia coli [2] it was 0.1; in the assay on Escherichia coli [3], 0.5; in the assay with Escherichia coli [4], 0.25.
For `C=C[C@]1(C)C[C@@H](OC(=O)Cn2cc(CCCn3cnc4c(N)ncnc43)nn2)[C@]2(C)[C@H](C)CC[C@]3(CCC(=O)[C@@H]32)[C@@H](C)[C@@H]1O`, the Activity was found to be 0.17 in the assay with Escherichia coli [1], 0.06 with Escherichia coli [2], 0.33 with Escherichia coli [3] and 0.22 in the assay with Escherichia coli [4].
The matching figures for `C=C[C@]1(C)C[C@@H](OC(=O)Cn2cc(Cn3cc(C)c(=O)[nH]c3=O)nn2)[C@]2(C)[C@H](C)CC[C@]3(CCC(=O)[C@@H]32)[C@@H](C)[C@@H]1O`: 0.69, 0.18, 0.75 and 0.37.
The like results for `C=C[C@]1(C)C[C@@H](OC(=O)Cn2cc(C[C@H](O)[C@@H]3O[C@H](n4cc(C)c(=O)[nH]c4=O)C[C@H]3O)nn2)[C@]2(C)[C@H](C)CC[C@]3(CCC(=O)[C@@H]32)[C@@H](C)[C@@H]1O` were, in that order, 0.33, 0.09, 0.69 and 0.35.
The matching figures for `C=C[C@]1(C)C[C@@H](OC(=O)Cn2cc(CO[C@@H]3C[C@@H](n4cc(C)c(=O)[nH]c4=O)O[C@H]3CO)nn2)[C@]2(C)[C@H](C)CC[C@]3(CCC(=O)[C@@H]32)[C@@H](C)[C@@H]1O`: 0.44, 0.12, 0.73 and 0.41.
Consider `C=C[C@]1(C)C[C@@H](OC(=O)Cn2cc(CO[C@@H]3[C@H](O)[C@@H](CO)O[C@H]3n3ccc(=O)[nH]c3=O)nn2)[C@]2(C)[C@H](C)CC[C@]3(CCC(=O)[C@@H]32)[C@@H](C)[C@@H]1O`, for which the Activity with Escherichia coli [1] is 0.54; in the assay with Escherichia coli [2], 0.14; in the assay with Escherichia coli [3], 0.72; with Escherichia coli [4], 0.29.
The like results for `C=C[C@]1(C)C[C@@H](OC(=O)Cn2cc(CCCc3ccccc3)nn2)[C@]2(C)[C@H](C)CC[C@]3(CCC(=O)[C@@H]32)[C@@H](C)[C@@H]1O` were, in that order, 0.21, 0.08, 0.48 and 0.41.
On to `C=C[C@]1(C)C[C@@H](OC(=O)CSCCN(CC)CC)[C@]2(C)[C@H](C)CC[C@]3(CCC(=O)[C@H]32)[C@@H](C)[C@@H]1O`, for which the Activity in the assay with Escherichia coli [1] was determined as 0.1; in the assay with Escherichia coli [2] it was 0.05; in the assay on Escherichia coli [3], 0.59; with Escherichia coli [4] it was 0.58.
The matching figures for `C=C[C@]1(C)C[C@@H](OC(=O)Cn2cc(Cn3ccc(N)nc3=O)nn2)[C@]2(C)[C@H](C)CC[C@]3(CCC(=O)[C@@H]32)[C@@H](C)[C@@H]1O`: 0.61, 0.16, 0.69 and 0.38.
The like results for `C=C[C@]1(C)C[C@@H](OC(=O)Cn2cc(CCCn3ccc(N)nc3=O)nn2)[C@]2(C)[C@H](C)CC[C@]3(CCC(=O)[C@@H]32)[C@@H](C)[C@@H]1O` were, in that order, 0.27, 0.05, 0.56 and 0.26.
The matching figures for `C=C[C@]1(C)C[C@@H](OC(=O)Cn2cc(Cc3ccccc3)nn2)[C@]2(C)[C@H](C)CC[C@]3(CCC(=O)[C@@H]32)[C@@H](C)[C@@H]1O`: 0.31, 0.06, 0.54 and 0.29.
`C=C[C@]1(C)C[C@@H](OC(=O)Cn2cc(CCCn3cc(C)c(=O)[nH]c3=O)nn2)[C@]2(C)[C@H](C)CC[C@]3(CCC(=O)[C@@H]32)[C@@H](C)[C@@H]1O`: the Activity in the assay with Escherichia coli [1] came to 0.41; with Escherichia coli [2], 0.08; in the assay on Escherichia coli [3] it was 0.46; in the assay on Escherichia coli [4], 0.24.
The matching figures for `C=C[C@]1(C)C[C@@H](OC(=O)Cn2cc(COC[C@H]3O[C@@H](n4cc(C)c(=O)[nH]c4=O)C[C@@H]3O)nn2)[C@]2(C)[C@H](C)CC[C@]3(CCC(=O)[C@@H]32)[C@@H](C)[C@@H]1O`: 0.62, 0.19, 0.93 and 0.36.
The like results for `C=C[C@]1(C)C[C@@H](OC(=O)Cn2cc(CCn3cc(C)c(=O)[nH]c3=O)nn2)[C@]2(C)[C@H](C)CC[C@]3(CCC(=O)[C@@H]32)[C@@H](C)[C@@H]1O` were, in that order, 0.53, 0.1, 0.57 and 0.36.
Take `C=C[C@]1(C)C[C@@H](OC(=O)Cn2cc(CCn3cnc4c(N)ncnc43)nn2)[C@]2(C)[C@H](C)CC[C@]3(CCC(=O)[C@@H]32)[C@@H](C)[C@@H]1O`: the Activity with Escherichia coli [1] amounted to 0.37; with Escherichia coli [2], 0.1; in the assay with Escherichia coli [3], 0.4; in the assay with Escherichia coli [4] it was 0.26.
The like results for `C=C[C@]1(C)C[C@@H](OC(=O)Cn2cc([C@]3(O)[C@H](O)[C@@H](CO)O[C@H]3n3ccc(=O)[nH]c3=O)nn2)[C@]2(C)[C@H](C)CC[C@]3(CCC(=O)[C@@H]32)[C@@H](C)[C@@H]1O` were, in that order, 0.61, 0.18, 0.74 and 0.35.
The like results for `C=C[C@]1(C)C[C@@H](OC(=O)Cn2cc([C@]3(O)[C@@H](CO)O[C@@H](n4ccc(=O)[nH]c4=O)[C@@H]3O)nn2)[C@]2(C)[C@H](C)CC[C@]3(CCC(=O)[C@@H]32)[C@@H](C)[C@@H]1O` were, in that order, 0.24, 0.03, 0.45 and 0.18.
The like results for `C=C[C@]1(C)C[C@@H](OC(=O)Cn2cc(CCc3ccccc3)nn2)[C@]2(C)[C@H](C)CC[C@]3(CCC(=O)[C@@H]32)[C@@H](C)[C@@H]1O` were, in that order, 0.29, 0.05, 0.61 and 0.35.
In the case of `C=C[C@]1(C)C[C@@H](OC(=O)Cn2cc(Cn3cnc4c(N)ncnc43)nn2)[C@]2(C)[C@H](C)CC[C@]3(CCC(=O)[C@@H]32)[C@@H](C)[C@@H]1O`, the Activity was determined as 0.73 in the assay with Escherichia coli [1], 0.19 in the assay on Escherichia coli [2], 0.73 in the assay on Escherichia coli [3] and 0.37 in the assay with Escherichia coli [4].
As to `C=C[C@]1(C)C[C@@H](OC(=O)CO)[C@]2(C)[C@H](C)CC[C@]3(CCC(=O)[C@@H]32)[C@@H](C)[C@@H]1O`, the Activity in the assay with Escherichia coli [1] is 0.42; in the assay on Escherichia coli [2] it was 0.1; in the assay with Escherichia coli [3], 0.99; with Escherichia coli [4], 0.98.
